Measurements from paper PMC9131871, “Impact of Micropolymorphism Outside the Peptide Binding Groove in the Clinically Relevant Allele HLA-C*14 on T Cell Responses in HIV-1 Infection” (Journal of Virology, 2022).

Assays:
[1] = test system: .221-C1402 / .221-C1403 cells pulsed with peptide; experiment: ICS assay, peptide-specific bulk T cells against peptide-pulsed .221 cells; format: cell-based, human; conditions: IFN-γ ICS, 1 μM peptide (autologous allele) or 0.01 to 10 nM (cross-recognition), triplicate assays
Procedure: To confirm the HLA-C*14-restriction of the T cell responses to the 6 NL4-3-derived peptides, we expanded T cells specific for these peptides by stimulating peripheral blood mononuclear cells (PBMCs) from responders with each peptide (HLA-C*14:02^+ responders for Gag AM9, Pol KM9, and Nef AL9 and HLA-C*14:03^+ responders for Gag LY9, Nef IF8, and Nef YT9). The cultured T cells were then tested for their ability to recognize the peptides presented on 721.221 cells expressing HLA-C*14:02 (.221-C1402 cells) or HLA-C*14:03 (.221-C1403 cells) and 721.221 cells by intracellular cytokine staining (ICS) assay. Both cell lines expressed similarly high levels of HLA-C*14, although the surface expression level of HLA-C*14 on the HLA-C*14:03-transfected line was higher than that on the HLA-C*14:02 line (the ratio of relative expression of HLA-C*14:03 to that of HLA-C*14:02 was approximately 1.3:1) (Fig. 4A). […] We further analyzed cross-recognition of .221-C1402 and .221-C1403 cells prepulsed with peptides at a range of different concentrations by T cells from HLA-C*14:02^+ and HLA-C*14:03^+ individuals.
FIG 4 HLA-C*14:02- and HLA-C*14:03-restricted T cell responses to 6 putative epitope peptides. (A) Histogram plots showing surface expression of HLA-C*14:02 or HLA-C*14:03 on .221-C14:02 or .221-C14:03 cells. The relative expression level of HLA-C*14:02 versus HLA-C*14:03 [(MFI of .221-C1402 stained with DT9 − MFI of .221-C1402 stained with the second antibody)/(MFI of .221-C1403 stained with DT9 − MFI of .221-C1403 stained with the second antibody)] is 1.3. (B and C) Gag LY9-, Gag AM9-, Pol KM9-, Nef YT9-, Nef IF8-, and Nef AL9-specific bulk T cell populations were expanded by stimulating responders’ PBMCs with each peptide. The ability of these peptide-specific bulk T cells to recognize peptide-pulsed .221 cells expressing HLA-C*14 molecules was then analyzed by ICS assay. (B) T cell recognition of .221 cells expressing the patient’s autologous HLA-C*14 allele and non-HLA-C*14-expressing cells pulsed with 1 μM peptide. (C) T cell recognition of HLA-C*14:02 or HLA-C*14:03-expressing cells pulsed with the indicated peptides at concentrations from 0.01 to 10 nM was analyzed by an ICS assay. The results are means and SDs from triplicate assays.
PBMCs from HIV-1-infected individuals were stimulated with 1 μM concentrations of the corresponding peptides and then cultured for 2 weeks in RPMI 1640 medium (Thermo Fisher) containing 10% FCS, 20 ng/mL of human recombinant interleukin 2 (rIL-2) (ProSpec), 1× minimal essential medium (MEM) nonessential amino acid solution (Gibco), and 1 mM sodium pyruvate solution (Gibco). Following T cell expansion, .221-C1402 cells or .221-C1403 cells prepulsed with each HIV-1 peptide or .221-C1402 cells or .221-C1403 cells infected with HIV-1 NL4-3 were added to a 96-well plate together with bulk-cultured T cells, and the cells were incubated for 4 h at 37°C with brefeldin A ([…]). The cells were then stained with Pacific blue (PB)-labeled anti-CD3 MAb (BioLegend), FITC-labeled anti-CD19 MAb (BioLegend), allophycocyanin (APC)-labeled anti-CD8 MAb (BioLegend), and a LIVE/DEAD fixable near-infrared (IR) dead-cell staining kit (Invitrogen) and subsequently fixed with 4% paraformaldehyde and incubated in permeabilization buffer (0.1% saponin–5% FBS–PBS). Thereafter, the cells were stained with phycoerythrin (PE)-labeled anti-IFN-γ MAb (BioLegend). Staining data were acquired on a FACSCanto II instrument (BD Biosciences) and analyzed using FlowJo 10.7.1 software.

[2] = test system: PBMCs from HIV-1-infected HLA-C*14:02+ or HLA-C*14:03+ individuals; experiment: ex vivo IFN-γ ELISPOT assay; format: cell-based, human; conditions: for Responder (number), 1402+: 30 HLA-C*14:02+ treatment-naive individuals; for Responder (number), 1402+ / Responder (number), 1403+: positive >100 spots/10^6 PBMCs; for Responder (number), 1403+: 30 HLA-C*14:03+ treatment-naive individuals; for frequency of individuals showing responses of >100 spot-forming cells/10^6 PBMCs: 60 HLA-C*14:02/C*14:03 treatment-naive individuals (30 + 30)

| Sequence | recognition of peptide-pulsed .221 cells by peptide-specific bulk T cells [1] | Responder (number), 1402+ ([2]; 1 μM peptide) | Responder (number), 1403+ ([2]; 1 μM peptide) | frequency of individuals showing responses of >100 spot-forming cells/10^6 PBMCs ([2]; 1 μM peptide) [%] | magnitude of T cell responses, compared between groups ([2]; 60 individuals, HLA-C*14:02+ versus HLA-C*14:03+ (or Gag versus Pol/Nef epitopes), Mann-Whitney test) | number of individuals with response, of 60 HLA-C*14+ Japanese individuals ([2]; 1 μM peptide, relatively strong responses) |
| --- | --- | --- | --- | --- | --- | --- |
| AFHHVAREL [Nef AL9] | recognized the epitope peptide-pulsed .221 cells expressing their autologous HLA-C*14 allele | 2 | 1 | 5 |  |  |
| AFSPEVIPM [Gag AM9] | recognized the epitope peptide-pulsed .221 cells expressing their autologous HLA-C*14 allele | 16 | 18 | 56 |  |  |
| IYHTQGYF [Nef IF8] | recognized the epitope peptide-pulsed .221 cells expressing their autologous HLA-C*14 allele | 6 | 6 | 20 |  |  |
| KYHSNWRAM [Pol KM9] | recognized the epitope peptide-pulsed .221 cells expressing their autologous HLA-C*14 allele | 4 | 0 | 6.6 | significantly higher |  |
| LYNTIAVLY [Gag LY9] | recognized the epitope peptide-pulsed .221 cells expressing their autologous HLA-C*14 allele | 6 | 5 | 18 |  | 11 |
| YFPDWQNYT [Nef YT9] | recognized the epitope peptide-pulsed .221 cells expressing their autologous HLA-C*14 allele | 12 | 7 | 31 |  |  |
